Values quoted from earlier work as cited in EP0306335A1, “Analysis of ions present at low concentrations in solutions containing other ions” (Bradshaw, Jerald S., priority 1987, dated 1989).

Conditions: ligand as solute in solution

O=C(O)CN(CCN(CC(=O)O)CC(=O)O)CC(=O)O [EDTA, ethylenediaminetetraacetic acid]
log of the equilibrium constant (log K) for interaction with Sr²⁺: 8.73
